Assay results: patent publication US9433622B2, “Pyrimidine compounds useful in the treatment of diseases mediated by IKKE and/or TBK1 mechanisms” (DOMAINEX LIMITED, priority 2013, dated 2016)
pIC50: −log10 of the molar value. Where two headings read alike, the source gives them in different places.

Tests used:
[1] = target: IKKε (Homo sapiens (Human), UniProt Q14164); test: Lanthascreen TR-FRET kinase inhibition assay, IKKε; type: biochemical
Outline: (§1)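 TR-FRET: terbium phosphospecific antibody detects phosphorylation of 400 nM fluorescein-IkBα peptide, 20 μM ATP, 20 °C, HEPES pH 7.5 with 3% DMSO. IKKε at 2 nM, 1 h reaction; TBK1 at 8 nM, 2.5 h reaction; started by kinase addition.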

[2] = target: TBK1 (Homo sapiens (Human), UniProt Q9UHD2); test: Lanthascreen TR-FRET kinase inhibition assay, TBK1; type: biochemical
Outline: as §1

[3] = 20 μM ATP (apparent Km), 2 nM kinase, 1 h
[4] = 20 μM ATP (apparent Km), 8 nM kinase, 2.5 h

TBK1, sequence (Q9UHD2 whole entry): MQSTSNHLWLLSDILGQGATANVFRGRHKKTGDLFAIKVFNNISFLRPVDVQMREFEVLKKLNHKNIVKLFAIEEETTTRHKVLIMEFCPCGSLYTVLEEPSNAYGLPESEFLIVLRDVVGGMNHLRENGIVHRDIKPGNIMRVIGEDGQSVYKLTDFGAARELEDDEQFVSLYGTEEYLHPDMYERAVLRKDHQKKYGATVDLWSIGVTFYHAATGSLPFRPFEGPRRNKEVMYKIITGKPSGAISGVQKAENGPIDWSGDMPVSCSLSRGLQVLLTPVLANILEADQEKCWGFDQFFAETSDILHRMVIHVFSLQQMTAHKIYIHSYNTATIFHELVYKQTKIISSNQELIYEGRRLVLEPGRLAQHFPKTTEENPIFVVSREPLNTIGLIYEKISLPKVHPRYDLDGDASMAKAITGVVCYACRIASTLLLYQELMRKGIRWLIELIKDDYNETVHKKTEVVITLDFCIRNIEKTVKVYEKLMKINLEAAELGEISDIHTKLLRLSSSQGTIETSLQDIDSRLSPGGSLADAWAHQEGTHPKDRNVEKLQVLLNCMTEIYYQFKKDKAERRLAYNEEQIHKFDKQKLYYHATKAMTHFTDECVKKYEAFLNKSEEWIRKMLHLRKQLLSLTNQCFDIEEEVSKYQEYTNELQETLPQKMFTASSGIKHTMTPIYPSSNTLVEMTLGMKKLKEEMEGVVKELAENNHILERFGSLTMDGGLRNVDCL
IKKε, sequence (Q14164 whole entry): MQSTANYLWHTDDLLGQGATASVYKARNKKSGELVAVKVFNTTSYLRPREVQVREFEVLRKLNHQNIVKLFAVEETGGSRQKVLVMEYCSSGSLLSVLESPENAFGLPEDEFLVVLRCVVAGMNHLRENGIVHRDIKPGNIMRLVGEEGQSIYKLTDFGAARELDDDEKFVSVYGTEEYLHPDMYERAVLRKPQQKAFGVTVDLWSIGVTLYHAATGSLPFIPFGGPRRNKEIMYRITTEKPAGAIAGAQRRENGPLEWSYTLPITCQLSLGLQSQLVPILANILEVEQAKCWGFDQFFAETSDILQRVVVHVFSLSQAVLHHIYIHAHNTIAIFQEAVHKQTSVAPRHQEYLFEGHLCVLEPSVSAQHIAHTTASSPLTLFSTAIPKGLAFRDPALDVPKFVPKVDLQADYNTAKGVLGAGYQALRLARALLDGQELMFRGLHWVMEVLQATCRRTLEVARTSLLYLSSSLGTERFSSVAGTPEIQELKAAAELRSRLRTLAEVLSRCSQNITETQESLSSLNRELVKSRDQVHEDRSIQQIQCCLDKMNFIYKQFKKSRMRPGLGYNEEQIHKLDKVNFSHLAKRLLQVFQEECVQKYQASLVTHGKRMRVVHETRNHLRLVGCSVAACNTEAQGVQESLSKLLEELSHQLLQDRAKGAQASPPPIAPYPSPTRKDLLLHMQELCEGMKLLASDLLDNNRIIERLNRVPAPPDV

Row | SMILES | pIC50 [1, 3] | pIC50 [2, 4] | pIC50 [1] | pIC50 [2]
1 | N#Cc1nc(-c2ccnc(Nc3ccc(CN4CCOCC4)nc3)n2)ccc1N1CCC2(COC2)C1 [DMX-165, 6-[2-(6-Morpholin-4-ylmethyl-pyridin-3-ylamino)-pyrimidin-4-yl]-3-(2-oxa-6-aza-spiro[3.4]oct-6-yl)-pyridine-2-carbonitrile] | > 7.82 | > 7.52 |  | 
2 | CN1CCC(NC(=O)c2cccc(Nc3nccc(-c4cnc(N5CCC(F)(F)C5)c(C#N)c4)n3)c2)CC1 [DMX-14, 3-{4-[5-Cyano-6-(3,3-difluoro-pyrrolidin-1-yl)-pyridin-3-yl]-pyrimidin-2-ylamino}-N-(1-methyl-piperidin-4-yl)-benzamide] | > 7.00 | > 7.00 |  | 
3 | N#Cc1cc(-c2ccnc(Nc3ccc(C(N)=O)cc3)n2)cnc1N1CCCC1 [DMX-37, 4-[4-(5-Cyano-6-pyrrolidin-1-yl-pyridin-3-yl)-pyrimidin-2-ylamino]-benzamide] | > 7.82 | > 7.82 |  | 
4 | COCCNc1ncc(-c2ccnc(Nc3ccc(NC4CCN(C)CC4)nc3)n2)cc1C#N [DMX-118, 2-(2-Methoxy-ethylamino)-5-{2-[6-(1-methyl-piperidin-4-ylamino)-pyridin-3-ylamino]-pyrimidin-4-yl}-nicotinonitrile] | > 6.00 | > 6.00 |  | 
5 | CC1(O)CN(Cc2ccc(Nc3nccc(-c4cnc(N5CC[C@H](F)C5)c(C#N)c4)n3)cn2)C1 [DMX-110, 2-((S)-3-Fluoro-pyrrolidin-1-yl)-5-{2-[6-(3-hydroxy-3-methyl-azetidin-1-ylmethyl)-pyridin-3-ylamino]-pyrimidin-4-yl}-nicotinonitrile] | > 7.52 | > 7.00 |  | 
6 | CN1CCC(Nc2ccc(Nc3nccc(-c4cnc(N5CC[C@H](O)C5)c(C#N)c4)n3)cn2)CC1 [DMX-13, 2-((S)-3-Hydroxy-pyrrolidin-1-yl)-5-{2-[6-(1-methyl-piperidin-4-ylamino)-pyridin-3-ylamino]-pyrimidin-4-yl}-nicotinonitrile] | > 7.00 | > 7.00 |  | 
7 | Cn1cc(Nc2nccc(-c3cnc(N4CCC[C@H]4C#N)c(C#N)c3)n2)cn1 [DMX-42, 2-((S)-2-Cyano-pyrrolidin-1-yl)-5-[2-(1 methyl-1H-pyrazol-4-ylamino)-pyrimidin-4-yl]-nicotinonitrile] | > 6.00 | > 7.00 |  | 
8 | N#Cc1cc(-c2ccnc(Nc3ccc(CN4CCOCC4)cc3)n2)cnc1N1CC[C@H](F)C1 [DMX-30, 2-((S)-3-Fluoro-pyrrolidin-1-yl)-5-[2-(4-morpholin-4-ylmethyl-phenylamino)-pyrimidin-4-yl]-nicotinonitrile] | > 7.82 | > 7.82 |  | 
9 | N#Cc1nc(-c2ccnc(Nc3ccc(CN4CCOCC4)nc3)n2)ccc1N1CC[C@H](O)C1 [DMX-144, 3-((S)-3-Hydroxy-pyrrolidin-1-yl)-6-[2-(6-morpholin-4-ylmethyl-pyridin-3-ylamino)-pyrimidin-4-yl]-pyridine-2-carbonitrile] | > 7.52 | > 7.52 |  | 
10 | CN1CCN(c2ccc(Nc3nccc(-c4cnc(N5CC[C@H](F)C5)c(C#N)c4)n3)cn2)CC1 [DMX-24, 2-((S)-3-Fluoro-pyrrolidin-1-yl)-5-{2-[6-(4-methyl-piperazin-1-yl)-pyridin-3-ylamino]-pyrimidin-4-yl}-nicotinonitrile] | > 7.82 | > 7.82 |  | 
11 | N#Cc1cc(-c2ccnc(Nc3ccc(CN4CCOCC4)nc3)n2)cnc1NCC1CCOC1 (stereo not shown) [DMX-138, 5-[2-(6-Morpholin-4-ylmethyl-pyridin-3-ylamino)-pyrimidin-4-yl]-2-[(tetrahydro-furan-3-ylmethyl)-amino]-nicotinonitrile] | > 6.00 | > 7.00 |  | 
12 | N#Cc1cc(-c2ccnc(Nc3ccc(CN4CCOCC4)nc3)n2)cnc1N1CCC(CCC(N)=O)C1 (stereo not shown) [DMX-162, 3-(1-{3-Cyano-5-[2-(6-morpholin-4-ylmethyl-pyridin-3-ylamino)-pyrimidin-4-yl]-pyridin-2-yl}-pyrrolidin-3-yl)-propionamide] | > 7.52 | > 7.00 |  | 
13 | COCCN(C)Cc1ccc(Nc2nccc(-c3cnc(N4CC[C@H](F)C4)c(C#N)c3)n2)cn1 [DMX-82, 2-((S)-3-Fluoro-pyrrolidin-1-yl)-5-[2-(6-{[(2-methoxy-ethyl)-methyl-amino]-methyl}-pyridin-3-ylamino)-pyrimidin-4-yl]-nicotinonitrile] | > 7.00 | > 7.00 |  | 
14 | N#Cc1cc(-c2ccnc(Nc3ccc(NCCO)nc3)n2)cnc1N1CC[C@H](F)C1 [DMX-27, 2-((S)-3-Fluoro-pyrrolidin-1-yl)-5-{2-[6-(2-hydroxy-ethylamino)-pyridin-3-ylamino]-pyrimidin-4-yl}-nicotinonitrile] |  | > 7.52 | > 7.52 | 
15 | N#Cc1cc(-c2ccnc(Nc3cn[nH]c3)n2)cnc1N1CC[C@H](F)C1 [DMX-63, 2-((S)-3-Fluoro-pyrrolidin-1-yl)-5-[2-(1H-pyrazol-4-ylamino)-pyrimidin-4-yl]-nicotinonitrile] | > 7.82 | > 7.82 |  | 
16 | COCCNc1cc(Nc2ncc(F)c(-c3cnc(N4CCCOCC4)c(C#N)c3)n2)ccn1 [DMX-95, 5-{5-Fluoro-2-[2-(2-methoxy-ethylamino)-pyridin-4-ylamino]-pyrimidin-4-yl}-2-[1,4]oxazepan-4-yl-nicotinonitrile] | > 6.00 | > 7.00 |  | 
17 | N#Cc1nc(-c2ccnc(Nc3ccc(N4CCOCC4)cc3)n2)ccc1N1CCCC1 [DMX-58, 6-[2-(4-Morpholin-4-yl-phenylamino)-pyrimidin-4-yl]-3-pyrrolidin-1-yl-pyridine-2-carbonitrile] | > 7.82 | > 7.82 |  | 
18 | CN1CCN(C(=O)c2cccc(Nc3nccc(-c4cnc(N5CC[C@H](F)C5)c(C#N)c4)n3)c2)CC1 [DMX-6, 2-((S)-3-Fluoro-pyrrolidin-1-yl)-5-{2-[3-(4-methyl-piperazine-1-carbonyl)-phenylamino]-pyrimidin-4-yl}-nicotinonitrile] | > 7.00 | > 7.52 |  | 
19 | COCCN1Cc2ccc(Nc3nccc(-c4cnc(N5CC[C@H](F)C5)c(C#N)c4)n3)cc2C1 [DMX-127, 2-((S)-3-Fluoro-pyrrolidin-1-yl)-5-{2-[2-(2-methoxy-ethyl)-2,3-dihydro-1H-isoindol-5-ylamino]-pyrimidin-4-yl}-nicotinonitrile] | > 7.82 | > 7.82 |  | 
20 | N#Cc1cc(-c2ccnc(Nc3cncc(CN4CCOCC4)c3)n2)cnc1N1CC[C@H](F)C1 [DMX-100, 2-((S)-3-Fluoro-pyrrolidin-1-yl)-5-[2-(5-morpholin-4-ylmethyl-pyridin-3-ylamino)-pyrimidin-4-yl]-nicotinonitrile] | > 7.52 | > 7.52 |  | 
21 | N#Cc1cc(-c2ccnc(Nc3ccc(NC(=O)CN4CCCC4)nc3)n2)cnc1N1CC[C@H](F)C1 [DMX-66, N-(5-{4-[5-Cyano-6-((S)-3-fluoro-pyrrolidin-1-yl)-pyridin-3-yl]-pyrimidin-2-ylamino}-pyridin-2-yl)-2-pyrrolidin-1-yl-acetamide] | > 7.00 | > 7.52 |  | 
22 | Cn1cc(Nc2nccc(-c3cnc(N4C5CCC4CC(O)C5)c(C#N)c3)n2)cn1 (stereo not shown) [DMX-44, 2-(3-Hydroxy-8-aza-bicyclo[3.2.1]oct-8-yl)-5-[2-(1-methyl-1H-pyrazol-4-ylamino)-pyrimidin-4-yl]-nicotinonitrile] |  |  | > 7.52 | > 7.82
23 | CC(C(=O)Nc1ccc(Nc2nccc(-c3cnc(N4CC[C@H](F)C4)c(C#N)c3)n2)cn1)N(C)C (stereo partly drawn) [DMX-18, N-(5-{4-[5-Cyano-6-((S)-3-fluoro-pyrrolidin-1-yl)-pyridin-3-yl]-pyrimidin-2-ylamino}-pyridin-2-yl)-2-dimethylamino-propionamide] | > 7.00 | > 7.00 |  | 
24 | Cc1nccn1CC(=O)Nc1ccc(Nc2nccc(-c3cnc(N4CC[C@H](F)C4)c(C#N)c3)n2)cn1 [DMX-128, N-(5-{4-[5-Cyano-6-((S)-3-fluoro-pyrrolidin-1-yl)-pyridin-3-yl]-pyrimidin-2-ylamino)-pyridin-2-yl)-2-(2-methyl-imidazol-1-yl)-acetamide] | > 7.52 | > 7.52 |  | 
25 | N#Cc1cc(-c2ccnc(Nc3ccnc(NC(=O)CN4CCOCC4)c3)n2)cnc1N1CCC2(COC2)C1 [DMX-93, N-(4-{4-[5-Cyano-6-(2-oxa-6-aza-spiro[3.4]oct-6-yl)-pyridin-3-yl]-pyrimidin-2-ylamino}-pyridin-2-yl)-2-morpholin-4-yl-acetamide] | > 7.00 | > 7.00 |  | 
26 | CC(C)N1CCN(CC(=O)Nc2ccc(Nc3nccc(-c4cnc(N5CC[C@H](F)C5)c(C#N)c4)n3)cn2)CC1 [DMX-23, N-(5-{4-[5-Cyano-6-((S)-3-fluoro-pyrrolidin-1-yl)-pyridin-3-yl]-pyrimidin-2-ylamino}-pyridin-2-yl)-2-(4-isopropyl-piperazin-1-yl)-acetamide] | > 7.52 | > 7.52 |  | 
27 | CC(C)C(Nc1ncc(-c2ccnc(Nc3ccc(CN4CCOCC4)nc3)n2)cc1C#N)C(N)=O (stereo not shown) [DMX-136, 2-{3-Cyano-5-[2-(6-morpholin-4-ylmethyl-pyridin-3-ylamino)-pyrimidin-4-yl]-pyridin-2-ylamino}-3-methyl-butyramide] | > 7.82 | > 7.82 |  | 
28 | N#Cc1cc(-c2ccnc(Nc3ccc(NC(=O)CN4CCC(O)CC4)nc3)n2)cnc1N1CC[C@H](F)C1 [DMX-29, N-(5-{4-[5-Cyano-6-((S)-3-fluoro-pyrrolidin-1-yl)-pyridin-3-yl]-pyrimidin-2-ylamino}-pyridin-2-yl)-2-(4-hydroxy-piperidin-1-yl)-acetamide] | > 7.52 | > 7.52 |  | 
29 | Cn1cc(Nc2nccc(-c3ccc(N4CCC(C(N)=O)CC4)c(C#N)n3)n2)cn1 [DMX-60, 2′-Cyano-6′-[2-(1-methyl-1H-pyrazol-4-ylamino)-pyrimidin-4-yl]-3,4,5,6-tetrahydro-2H-[1,3′]bipyridinyl-4-carboxylic acid amide] | > 7.00 | > 7.00 |  | 
